According to the METLIN SMRT retention time set (Domingo-Almenara et al. 2019):

Assay: gradient 5% acetonitrile 3 min, to 50% in 2 min, to 85% in 15 min, held 3 min, 100 µL/min
Conditions: column: Zorbax Extend-C18 2.1 x 50 mm; eluents: water / acetonitrile, 0.1% formic acid
How it was run: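 Pure standards were run in mixtures of ~100 molecules by HPLC coupled to a quadrupole time-of-flight mass spectrometer. The column was a Zorbax Extend-C18 (2.1 × 50 mm, 1.8 μm) at 100 μL/min, with water and acetonitrile each containing 0.1% formic acid, in positive and negative ionization mode. Dead and dwell volumes were 40 μL and 900 μL. Retention time was taken from computationally picked adduct peaks, each manually inspected, with data collected over 3 months.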

| Structure (SMILES) | RP-LC retention time [s] |
| --- | --- |
| Cc1cc(NC(=O)CSc2c(-c3ccccc3)[nH]c3ccccc23)no1 | 846 |
| CN1Cc2ccccc2-n2ccnc2C12CCN(C(=O)c1ccc(Br)o1)CC2 | 615 |
| CCNC(=O)N1CCCC(c2cccc(C(=O)NC3CCCCC3)c2)C1 (stereo unspecified) | 817 |
| O=C(Nc1ccccc1)N(Cc1cccnc1)C1CN(Cc2ccc(F)c(F)c2)C1 | 965 |
| CCc1nc(-c2ccc(-c3noc(CNC(=O)c4ccccc4)n3)cc2)cs1 | 963 |
| COc1ccc(NC(=O)CSc2ccc(-c3cccs3)nn2)c(OC)c1 | 890 |
| Cc1c(C(=O)N2CCCCCC2)sc2ncn(CC(=O)N3CC(C)CC(C)C3)c(=O)c12 (stereo unspecified) | 891 |
| CN(CC1CCOC1)C(=O)Nc1cccc(Br)c1 (stereo unspecified) | 716 |
| Cc1ccc(-c2nnc(SCc3cccc(Cl)c3)o2)cc1 | 1210 |
| CCN(CC)S(=O)(=O)c1cc(-c2nnc(-c3ccccc3OC)o2)ccc1OC | 903 |
| CCCn1c(C(=O)NCCc2ccc(S(N)(=O)=O)cc2)cc2c(=O)n(C)c(=O)n(C)c21 | 631 |
| CCSc1nnc(NC(=O)CCc2c(C)n[nH]c2C)s1 | 584 |
| CCc1noc(NC(C)=O)c1-c1ccc(C)c(S(=O)(=O)Nc2ccc(C(F)(F)F)cc2)c1 | 902 |
| CCCCCn1c(=O)c2ccccc2n(Cc2nc(-c3ccc(Cl)c(F)c3)no2)c1=O | 659 |
| CN(CC1CCOCC1)S(=O)(=O)Cc1ccccc1Cl | 834 |
| CC(C)(C)c1noc(-c2cccnc2-n2cnc(C(=O)Nc3cccc(F)c3)c2)n1 | 1000 |
| COC(=O)Cn1c(C2CC(=O)N(c3cccc(C)c3)C2)nc2ccccc21 (stereo unspecified) | 758 |
| CCOc1cc(-c2nc(C3CC(=O)N(c4ccc(C)cc4)C3)no2)cc(OCC)c1OCC (stereo unspecified) | 1150 |

| Structure (SMILES) | RP-LC retention time [s] |
| --- | --- |
| Cn1nccc1-c1cccc(-c2noc(-c3cc(F)cc(F)c3)n2)c1 | 1220 |
| CCCCn1cc(S(=O)(=O)Nc2ccc(F)cc2)c2cccnc21 | 936 |
| COc1cc(-c2nnc(-c3cccc(S(=O)(=O)N(C)C)c3)o2)cc(OC)c1OC | 873 |
| Cc1ccc(-c2[nH]ncc2CN2CCn3c(nn(C)c3=O)C2)cc1C | 638 |
| O=C(NCC1CCOCC1)c1ccc2c(c1)OCO2 | 655 |
| COc1cc(OC)cc(C(=O)Nc2ccc3sccc3c2)c1 | 882 |
| COc1ccc(C2C(C(=O)O)CCC(=O)N2c2ccc(OC)cc2)cc1 (stereo unspecified) | 656 |
| O=C1[C@H]2CN(Cc3ccc(Cl)cc3)C[C@H]2C(=O)N1CCc1ccccc1 | 749 |
| COc1cc2c(cc1OC)CN(C(=O)C1CC(=O)N(c3n[nH]c4cccc(F)c34)C1)CC2 (stereo unspecified) | 689 |
| COc1cc(-c2noc(Cn3ncn4nc(-c5ccc(C)cc5C)cc4c3=O)n2)cc(OC)c1OC | 1130 |
| Cc1oc(-c2ccc(C(=O)NCCc3ccco3)cc2)nc1CN1CCc2ccccc21 | 1050 |
| COCCN1CCC2(CC1)CN(Cc1ccc(C(C)C)cc1)Cc1ccccc1O2 | 667 |
| CCC(C)NC(=O)c1cnn(-c2ccc(-c3nc(C(C)(C)C)no3)cn2)c1C (stereo unspecified) | 1050 |
| C=CCNc1nc(-c2ccc(Cl)cc2)cs1 | 984 |
| COc1ccc(C2CC(=O)N(c3ccc(F)c(F)c3)C(=O)C2)cc1OC | 852 |
| CCOc1ccccc1NC(=O)Cn1cccc(-c2nc(-c3ccc(Br)cc3)no2)c1=O | 1100 |
| COc1cc(OC)c(NC(=O)C(=O)c2ccc[nH]2)cc1Cl | 978 |

Results, then the compound that gave them:

| RP-LC retention time [s] | Structure (SMILES) |
| --- | --- |
| 915 | CCC(C)(C)C(=O)N1CCCN(C2=NS(=O)(=O)C(c3ccc(C)cc3)=C2C)CC1 |
| 696 | Cc1cc(NC(=O)C2CCN(C(=O)COc3ccccc3F)CC2)no1 |
| 627 | CCCN1CCN(c2cc(C(=O)O)c3cc(NS(=O)(=O)c4cc(F)ccc4C)ccc3n2)CC1 |
| 916 | O=C(NCCc1ccccc1)c1nnc(-c2ccc(S(=O)(=O)N3CCCC3)cc2)o1 |
| 679 | Cc1cccc2nnc(N3CCC(C(=O)NCc4ccccc4Cl)CC3)n12 |
| 820 | Cc1ccc(NC(=O)N2C[C@H](c3nc(-c4cccnc4)no3)[C@@H](C)C2)cc1 |
| 632 | O=C(NCc1cccnc1)c1cc2cc(Cl)ccc2[nH]1 |
| 929 | O=C(NC1CC1)C1CCN(S(=O)(=O)Cc2ccc(F)cc2)CC1 |
| 770 | COc1ccc(S(=O)(=O)N2CCN(c3cc(C)nc(NC4CCCCC4)n3)CC2)cc1 |
| 717 | Cc1cc(S(=O)(=O)N2CCCCC2c2nncn2C)ccc1F (stereo unspecified) |
| 1200 | CCn1c(C(=O)NCc2ccc(C)cc2)cc2sc(Cl)cc21 |
| 746 | Cc1cc(NC(=O)C2CC2)nn1Cc1ccccc1 |
| 956 | COc1ccc(OC)c(NC(=O)N2CCC(c3cnn(-c4ccccc4)c3)CC2)c1 |
| 1050 | Cc1ccc(-n2c(N3CCCC(C(=O)Nc4ccc(F)c(F)c4)C3)nc3ccsc3c2=O)cc1 (stereo unspecified) |
| 814 | CCOC(=O)c1c(C)[nH]c(C(=O)N2CCCC(C(=O)NCc3ccccc3C)C2)c1C (stereo unspecified) |
| 780 | Cc1nc2nc(-c3ccc(Cl)cc3)nn2c(C)c1CC(=O)N1CCCC1 |

| RP-LC retention time [s] | Structure (SMILES) |
| --- | --- |
| 823 | CCN1CCN(c2ccc(NC(=O)c3ccc(C(F)(F)F)cc3)cn2)C1=O |
| 765 | Cc1ccc(CN2CCN(C3CCN(C(=O)Nc4ccc5c(c4)OCCO5)CC3)C2=O)cc1 |
| 599 | Cc1cc(C)n(-c2ccnc(N3CCC(C(=O)NCc4ccncc4)CC3)n2)n1 |
| 640 | Cc1nc(-c2noc(-c3ccncc3)n2)cn1CC(=O)NCc1cccs1 |
| 693 | O=C(NCCCn1c(-c2ccncc2)nc2cccnc21)Nc1ccc(F)c(Cl)c1 |
| 921 | Cc1ccc(-n2cc(C(=O)NCc3ccccc3Cl)nn2)cc1 |
| 564 | CCN1CCN(CCCNC(=O)C2CCN(Cc3cn(C)c4ccc(Cl)cc34)CC2)CC1 |
| 661 | CCOc1ccc(NC(=O)N(Cc2ccc3c(c2)OCO3)C2CCN(CC)CC2)cc1 |
| 726 | CCC1CCCCN1Cc1nc(Cn2ccn3nc(-c4ccc(C)cc4)cc3c2=O)no1 (stereo unspecified) |
| 713 | O=C(C1CCN(c2nc3cccnc3s2)CC1)N1CCCCC1 |
| 1060 | Cc1ccc(C)c(C(=O)N2CCc3nc(-c4ccc(F)cc4)ncc3C2)c1 |
| 1030 | CC(C)(C)c1noc(-c2ccc(-n3cnc(C(=O)N4CCCCCC4)c3)nc2)n1 |
| 723 | Cc1cccc(NC(=O)N2CCC3(CC2)NC(=O)c2ccc(F)cc2N3C)c1 |
| 587 | O=C(O)CCC1CCN(c2cc(NC3CC3)ncn2)CC1 |
| 597 | CC(C)n1cnc2cc(CNC(=O)c3ccc(C#N)cc3F)ccc21 |
